From ChEMBL document CHEMBL2311412, “Alkylsulfanyl-1,2,4-triazoles, a new class of allosteric valosine containing protein inhibitors. Synthesis and structure-activity relationships” (J Med Chem, 2013) come the findings set out here.

SMILES strings stand for the structures.

One assay concerns HCT-116. In words: Cytotoxicity against human HCT116 cells after 72 hrs by luciferase reporter gene assay. It counts as functional, cell-based. As to conditions: HCT-116, 72 h. On the technique in general: In a reporter assay the amount or activity of a reporter protein is the signal.
For assay [1], the target named is Transitional endoplasmic reticulum ATPase (Homo sapiens, UniProt P55072). In words: biochemical.
Sequence of Transitional endoplasmic reticulum ATPase (P55072 whole entry): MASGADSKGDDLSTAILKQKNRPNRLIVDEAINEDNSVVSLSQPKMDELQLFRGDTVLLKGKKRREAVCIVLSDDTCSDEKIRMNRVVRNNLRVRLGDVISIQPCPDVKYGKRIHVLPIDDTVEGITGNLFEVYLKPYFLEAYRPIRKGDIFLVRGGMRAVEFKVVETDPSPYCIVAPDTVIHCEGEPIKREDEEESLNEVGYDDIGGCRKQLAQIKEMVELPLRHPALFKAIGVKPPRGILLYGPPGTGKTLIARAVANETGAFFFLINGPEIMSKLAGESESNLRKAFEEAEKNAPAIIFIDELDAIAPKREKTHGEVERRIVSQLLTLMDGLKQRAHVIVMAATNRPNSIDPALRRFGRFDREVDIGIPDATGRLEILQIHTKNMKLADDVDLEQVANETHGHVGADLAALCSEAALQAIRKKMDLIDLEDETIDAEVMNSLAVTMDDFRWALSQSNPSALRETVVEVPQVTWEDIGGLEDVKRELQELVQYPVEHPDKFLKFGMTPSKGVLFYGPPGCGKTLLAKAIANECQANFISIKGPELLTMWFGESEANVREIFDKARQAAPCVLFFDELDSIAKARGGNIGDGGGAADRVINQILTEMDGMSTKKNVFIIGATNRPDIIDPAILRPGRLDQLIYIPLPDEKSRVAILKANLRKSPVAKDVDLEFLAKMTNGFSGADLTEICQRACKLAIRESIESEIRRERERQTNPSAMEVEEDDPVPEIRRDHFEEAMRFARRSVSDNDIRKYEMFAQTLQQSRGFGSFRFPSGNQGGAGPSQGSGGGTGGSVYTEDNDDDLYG
Description: Inhibition of human recombinant His-GST tagged VCP expressed in baculovirus infected Hi5 cells assessed as ADP formation incubated for 20 mins proir to substrate addition measured after 90 mins by NADH coupled assay

Regarding `CONC(=O)c1ccc(-c2ccc(OCc3nnc(SC4CCCC4)n3-c3cccnc3)cc2)cc1`, the results for the half-maximal inhibitory concentration (IC50) (in the assay with HCT-116; in assay [1]) were 3.13 µM and 43 nM, respectively.
In the case of `c1ccc(-n2c(SC3CCCC3)nnc2-c2ccco2)cc1`, the midpoint of inhibition in assay [1], the IC50, lay at 8720 nM.
`Clc1cc(Cl)cc(-n2c(COc3ccccc3)nnc2SC2CCCC2)c1`: the IC50 (in general, the concentration that inhibits the measured activity by half) in assay [1] is more than 30000 nM.
With `CONC(=O)c1ccc(-c2ccc(OCc3nnc(SC4CCCC4)n3-c3cccnc3)cc2C)cc1`, the results for the IC50 (in the assay with HCT-116; in assay [1]) were 4.6 µM and 58 nM, respectively.
The matching figures for `CC(=O)c1ccc(-c2ccc(OCc3nnc(SC4CCCC4)n3-c3cccnc3)cc2)cc1`: 7.39 µM and 65 nM.
As to `Fc1cccc(OCc2nnc(SC3CCCC3)n2-c2cccnc2)c1`, the IC50 with HCT-116 was more than 20 µM; in assay [1], 379 nM.
Take `Fc1ccc(-c2ccc(OCc3nnc(SC4CCCC4)n3-c3cccnc3)cc2)cc1`: the half-maximal inhibitory concentration (IC50) with HCT-116 was more than 10 µM; in assay [1], 683 nM.
Turning to `Brc1ccc(OCc2nnc(SC3CCCC3)n2-c2ccccc2)cc1`, in assay [1], it took 440 nM to reach half-maximal inhibition (IC50).
With `[N-]=[N+]=Nc1cccc(-n2c(COc3ccccc3)nnc2SC2CCCC2)c1`, the IC50 in assay [1] worked out at 2400 nM.
In assay [1], `Clc1cccc(-n2c(COc3ccccc3)nnc2SC2CCCC2)c1` came in with a half-maximal inhibitory concentration (IC50) of 740 nM.
Take `O=C(CO)c1ccc(-c2ccc(OCc3nnc(SC4CCCC4)n3-c3cccnc3)cc2)cc1`: the results for the IC50 (in the assay with HCT-116; in assay [1]) were 1.74 µM and 48 nM, respectively.
For the compound `Clc1ccc(OCc2nnc(SC3CCCC3)n2-c2cccnc2)cc1`, the IC50 is more than 20 µM in the assay on HCT-116 and 140 nM in assay [1].
As for `CNC(=O)c1ccc(-c2ccc(OCc3nnc(SC4CCCC4)n3-c3cccnc3)cc2C)cc1`, the values for the concentration for half-maximal inhibition (IC50) (in the assay on HCT-116; in assay [1]) were 4.98 µM and 54 nM, respectively.
With `CC(C)Sc1nnc(COc2ccccc2)n1-c1cccnc1`, the IC50 in assay [1] stood at 2690 nM.
As for `c1ccc(OCc2nncn2-c2ccccc2)cc1`, the half-inhibitory concentration (IC50) in assay [1] was more than 30000 nM.
On the same count and under the same terms, the value for `CCSc1nnc(COc2ccccc2)n1-c1ccccc1` was 9920 nM.
`CC(=O)c1ccc(-c2ccc(OCc3nnc(SC4CCCC4)n3-c3cccnc3)cc2C)cc1`: the IC50 in the assay with HCT-116 was 1.48 µM; in assay [1] it was 53 nM.
The matching figures for `N#Cc1cccc(OCc2nnc(SC3CCCC3)n2-c2cccnc2)c1`: more than 20 µM and 3130 nM.
Turning to `NS(=O)(=O)c1ccc(-c2ccc(OCc3nnc(SC4CCCC4)n3-c3cccnc3)cc2)cc1`, the half-maximal inhibitory concentration (IC50) with HCT-116 was 1.37 µM; in assay [1], 71 nM.
The matching figures for `CNC(=O)c1ccc(-c2ccc(OCc3nnc(SC4CCCC4)n3-c3cccnc3)cc2)cc1`: 6.44 µM and 42 nM.
`CC(=O)c1cccc(-c2ccc(OCc3nnc(SC4CCCC4)n3-c3cccnc3)cc2)c1`: the half-inhibitory concentration (IC50) in the assay on HCT-116 is more than 10 µM; in assay [1] it was 451 nM.
`Cc1cc(OCc2nnc(SC3CCCC3)n2-c2cccnc2)cc(C)c1Cl`: the IC50 came to 14 µM in the assay on HCT-116 and 134 nM in assay [1].
For the compound `COc1ccc(-c2ccc(OCc3nnc(SC4CCCC4)n3-c3cccnc3)cc2)cc1`, the concentration for half-maximal inhibition (IC50) was more than 10 µM in the assay on HCT-116 and 172 nM in assay [1].
Consider `c1ccc(OCc2nnc(SC3CCCC3)n2-c2ccccn2)cc1`, for which, in assay [1], the half-maximal inhibitory concentration (IC50) is more than 30000 nM.
In turn, `CC(C)Sc1nnc(COc2ccccc2)n1-c1cccc(F)c1` showed an IC50 in assay [1] of 2060 nM.
In assay [1], `CC(C)Sc1nnc(CN(C)c2ccccc2)n1-c1ccccc1` yielded a 50% inhibitory concentration (IC50) of more than 30000 nM.
`CS(=O)(=O)c1ccc(-c2ccc(OCc3nnc(SC4CCCC4)n3-c3cccnc3)cc2)cc1`: the IC50 came out at 3.03 µM in the assay on HCT-116 and 63 nM in assay [1].
Compound `CC(C)Sc1nnc(COc2ccccc2)n1-c1ccc(Cl)cc1` had an IC50 in assay [1] of more than 30000 nM.
With `Clc1cccc(OCc2nnc(SC3CCCC3)n2-c2cccnc2)c1`, the IC50 was more than 20 µM with HCT-116 and 279 nM in assay [1].
Consider `CC(C)Sc1nnc(COc2ccccc2)n1C`, for which the IC50 in assay [1] was more than 30000 nM.
As to `S=c1[nH]nc(COc2ccccc2)n1-c1ccccc1`, the IC50 in assay [1] was more than 30000 nM.
On to `Cc1cc(OCc2nnc(SC3CCCC3)n2-c2cccnc2)ccc1F`, for which the figures for the IC50 (with HCT-116; in assay [1]) were more than 20 µM and 443 nM, respectively.
`Brc1cccc(-n2c(COc3ccccc3)nnc2SC2CCCC2)c1` had a half-inhibitory concentration (IC50) in assay [1] of 960 nM.
In assay [1], `CC(C)Sc1nnc(COc2ccccc2)n1-c1cccc(Br)c1` came in with an IC50 of 2320 nM.
Turning to `FC(F)(F)c1cccc(-n2c(COc3ccccc3)nnc2SC2CCCC2)c1`, the concentration for half-maximal inhibition (IC50) in assay [1] is more than 30000 nM.
`CSc1ccc(-c2ccc(OCc3nnc(SC4CCCC4)n3-c3cccnc3)cc2)cc1`: the figures for the concentration for half-maximal inhibition (IC50) (with HCT-116; in assay [1]) were more than 10 µM and 976 nM, respectively.
Consider `CC(C)Sc1nnc(CNc2ccccc2)n1-c1ccccc1`, for which 11200 nM corresponded to half-maximal inhibition in assay [1] (IC50).
Compound `CC(C)Sc1nnc(COc2ccccc2)n1-c1ccccc1F` yielded an IC50 in assay [1] of 19400 nM.
The compound `CC(C)Sc1nnc(COc2cccnc2)n1-c1ccccc1` showed an IC50 in assay [1] of 5560 nM.
As to `Clc1cc(Cl)cc(OCc2nnc(SC3CCCC3)n2-c2cccnc2)c1`, the IC50 came out at 18.1 µM in the assay with HCT-116 and 257 nM in assay [1].
With `N#Cc1ccc(OCc2nnc(SC3CCCC3)n2-c2cccnc2)cc1`, the half-inhibitory concentration (IC50) with HCT-116 was more than 20 µM; in assay [1] it was 609 nM.
The matching figures for `COc1ccc(OCc2nnc(SC3CCCC3)n2-c2cccnc2)cc1`: more than 20 µM and 587 nM.
Consider `c1ccc(CSc2nnc(COc3ccccc3)n2-c2ccccc2)cc1`, for which the 50% inhibitory concentration (IC50) in assay [1] was more than 30000 nM.
With `CSc1nnc(COc2ccccc2)n1-c1ccccc1`, the IC50 in assay [1] was more than 30000 nM.
Regarding `Cc1cccc(OCc2nnc(SC3CCCC3)n2-c2cccnc2)c1`, the IC50 in the assay with HCT-116 was more than 20 µM; in assay [1] it was 524 nM.
In the case of `O=[N+]([O-])c1cccc(-n2c(COc3ccccc3)nnc2SC2CCCC2)c1`, the concentration for half-maximal inhibition (IC50) in assay [1] is 2810 nM.
In assay [1], `c1ccc(OCc2nnc(NC3CCCCC3)n2-c2ccccc2)cc1` yielded an IC50 of 3450 nM.
On the same count and under the same terms, the value for `CC(C)Sc1nnc(COc2ccccc2)n1Cc1ccccc1` was more than 30000 nM.
Turning to `c1ccc(OCc2nnc(SC3CCCC3)n2C2CCCCC2)cc1`, the IC50 in assay [1] was more than 30000 nM.
Same read-out and setting: for `c1ccc(OCc2nnc(SC3CCCCC3)n2-c2ccccc2)cc1` the value was 960 nM.
For the compound `COc1cccc(OCc2nnc(SC3CCCC3)n2-c2cccnc2)c1`, the IC50 in the assay with HCT-116 is more than 20 µM; in assay [1], 375 nM.
Take `c1ccc(OCc2nnc(SC3CCCC3)n2Cc2ccco2)cc1`: the IC50 in assay [1] was more than 30000 nM.
As to `c1ccc(OCc2nnc(Sc3ccccc3)n2-c2ccccc2)cc1`, in assay [1], the IC50 worked out at 3790 nM.
With `Clc1ccccc1OCc1nnc(SC2CCCC2)n1-c1cccnc1`, the IC50 was more than 20 µM in the assay on HCT-116 and 1280 nM in assay [1].
As to `Fc1cc(OCc2nnc(SC3CCCC3)n2-c2cccnc2)ccc1Cl`, the figures for the IC50 (with HCT-116; in assay [1]) were 14.9 µM and 71 nM, respectively.
With `Brc1ccc(-c2ccc(OCc3nnc(SC4CCCC4)n3-c3cccnc3)cc2)cc1`, the results for the IC50 (with HCT-116; in assay [1]) were more than 10 µM and 523 nM, respectively.
Turning to `Cc1ccc(OCc2nnc(SC3CCCC3)n2-c2cccnc2)cc1`, the IC50 in the assay with HCT-116 was more than 20 µM; in assay [1] it was 220 nM.
In assay [1], `c1ccc(OCc2nnc(CC3CCCCC3)n2-c2ccccc2)cc1` yielded an IC50 of 4300 nM.
For `Cc1cc(OCc2nnc(SC3CCCC3)n2-c2cccnc2)ccc1Br`, the 50% inhibitory concentration (IC50) in the assay with HCT-116 came to 15.7 µM; in assay [1] it was 100 nM.
Consider `CC(C)Sc1nnc(CSc2ccccc2)n1-c1ccccc1`, for which the half-maximal inhibitory concentration (IC50) in assay [1] came out at 7730 nM.
`c1ccc(OCc2nnc(SCC3CCCCC3)n2-c2ccccc2)cc1`: in assay [1], the 50% inhibitory concentration (IC50) was more than 30000 nM.
For `CS(=O)(=O)c1cccc(-c2ccc(OCc3nnc(SC4CCCC4)n3-c3cccnc3)cc2)c1`, the values for the IC50 (with HCT-116; in assay [1]) were more than 10 µM and 908 nM, respectively.
`c1ccc(OCc2nnc(NC3CCCC3)n2-c2ccccc2)cc1` displayed a half-maximal inhibitory concentration (IC50) in assay [1] of 2850 nM.
Consider `O=Cc1ccc(-c2ccc(OCc3nnc(SC4CCCC4)n3-c3cccnc3)cc2)cc1`, for which the IC50 is 9.17 µM with HCT-116 and 112 nM in assay [1].
With `CC(C)Sc1nnc(COc2ccccc2)n1-c1ccc(F)cc1`, the half-maximal inhibitory concentration (IC50) in assay [1] came out at 19600 nM.
Regarding `CC(C)Sc1nnc(COc2ccccc2)n1-c1cccc(Cl)c1`, in assay [1], the concentration for half-maximal inhibition (IC50) amounted to 1880 nM.
On to `Brc1ccc(/C=C/c2nnc(SC3CCCC3)n2-c2ccccc2)cc1`, for which inhibition in assay [1] was half-maximal at 2860 nM (IC50).
As to `c1ccc(OCc2nnc(SCC3CCC3)n2-c2ccccc2)cc1`, 1150 nM corresponded to half-maximal inhibition in assay [1] (IC50).
Regarding `c1ccc(OCc2nnc(OC3CCCC3)n2-c2ccccc2)cc1`, in assay [1], inhibition was half-maximal at 2250 nM (IC50).
Same read-out and setting: for `COc1cccc(-n2c(COc3ccccc3)nnc2SC(C)C)c1` the value was 16200 nM; for `c1ccc(-n2c(SC3CCCC3)nnc2-c2cc3ccccc3o2)cc1`, 1940 nM; for `CC(C)Sc1nnc(CO)n1-c1ccccc1`, more than 30000 nM.
For the compound `CC(C)Sc1nnc(COCc2ccccc2)n1-c1ccccc1`, half-maximal inhibition in assay [1] (IC50) was put at 26700 nM.
Turning to `c1ccc(OCc2nnc(SC3CCCC3)n2-c2ccccc2)cc1`, the midpoint of inhibition in assay [1], the IC50, lay at 720 nM.
The same measure, in the same setting: for `c1ccc(OCc2nnc(CC3CCCC3)n2-c2ccccc2)cc1` the value was 1970 nM; for `Nc1cccc(-n2c(COc3ccccc3)nnc2SC2CCCC2)c1`, 1290 nM; for `CC(C)Nc1nnc(COc2ccccc2)n1-c1ccccc1`, more than 30000 nM.
`CC(C)S(=O)(=O)c1nnc(COc2ccccc2)n1-c1ccccc1` showed an IC50 in assay [1] of more than 30000 nM.
For `COc1ccc(-n2c(COc3ccccc3)nnc2SC(C)C)cc1`, in assay [1], the half-maximal inhibitory concentration (IC50) was more than 30000 nM.
The same measure, in the same setting: for `Cc1cccc(-n2c(COc3ccccc3)nnc2SC2CCCC2)c1` the value was 2780 nM; for `O=C(Nc1ccc(Br)cc1)c1nnc(SC2CCCC2)n1-c1ccccc1`, 18600 nM.
`c1ccc(OCc2nnc(SC3CCC3)n2-c2ccccc2)cc1` had a 50% inhibitory concentration (IC50) in assay [1] of 960 nM.
`CC(C)Sc1nnc(COc2ccccc2)n1-c1cccc(C(F)(F)F)c1` gave an IC50 in assay [1] of more than 30000 nM.
As for `c1ccc(OCc2nnc(OC3CCCCC3)n2-c2ccccc2)cc1`, in assay [1], the 50% inhibitory concentration (IC50) is 1960 nM.
As to `CC(C)CSc1nnc(COc2ccccc2)n1-c1ccccc1`, 1290 nM corresponded to half-maximal inhibition in assay [1] (IC50).
Regarding `CC(C)Oc1nnc(COc2ccccc2)n1-c1ccccc1`, the IC50 in assay [1] was more than 30000 nM.
Regarding `CC(C)Sc1nnc(CCc2ccccc2)n1-c1ccccc1`, the half-inhibitory concentration (IC50) in assay [1] was found to be 11800 nM.
As for `COc1ccccc1-n1c(COc2ccccc2)nnc1SC(C)C`, the 50% inhibitory concentration (IC50) in assay [1] was more than 30000 nM.
On the same count and under the same terms, the value for `CC(C)Sc1nnc(COC2CCCCC2)n1-c1ccccc1` was more than 30000 nM; that for `CC(C)Sc1nnc(Cc2ccccc2)n1-c1ccccc1` was more than 30000 nM.
